Source: patent US5244916A, “Inhibition of respiratory burst using posttranslational modification inhibitors” (The Scripps Research Institute, priority 1992, dated 1993)

System: Rap1
Test: Metabolic labeling and immune precipitation of processed and unprocessed Rap1 in HL-60 cells
Format: cell-based
Conditions: various concentrations
Experimental: Analysis of Rapl processing in HL-60 cells was performed by labeling cells (8×10^5 /ml) with 200μCi/ml ^35 S-Trans-label (ICN Biomedicals, Inc., Costa Mesa, CA) for 5 days during cell differentiation with 1.3% DMSO in Cys-Met-free medium containing 12% dialyzed fetal bovine serum. Various concentrations of compactin were included as indicated. Metabolically labeled cells were collected, washed once with isotonic NaCl, treated with 2.5 mM Hepes pH 7.5, 100 mM NaCl, 1 mM EDTA, 1 % Triton X-100, 2.5 μM PMSF, and 100U aprotonin. After a 15-minute incubation on ice, the cell lysates were pelleted in a microfuge for 2 minutes and then the supernatant was transferred to clean tubes containing 100 μl 4M NaCl, 5 μl 10% SDS, and 50 μl10% deoxycholate. The samples were boiled for two minutes, pelleted, and transferred to clean tubes containing 2 μl of the primary antibody, 142-24E05 (Chesa, et al., PNAS USA 84: 3234-3238 (1987); Bokoch, et al., J. Biol. Chem. 263: 16744-16749 (1988)). […]
In untreated cells, Rapl was present largely in the membrane fraction, with very little Rapl in the cytosol. […] Isoprenylation of Rapl was also assessed by metabolic labeling of the HL-60 cells with immune precipitation of Rap1, and analysis of the 22kD processed and 23kD unprocessed forms of Rap1 (Buss, et al., Mol. Cell, Biol. 11: 1523-1527 (1991)).

Q: `CC[C@H](C)C(=O)O[C@H]1CCC=C2C=C[C@H](C)[C@H](CC[C@@H]3C[C@@H](O)CC(=O)O3)[C@H]21` [compactin] was tested. Which “22 kD processed form of Rap1” value did it give?
A: dose-dependent decrease

Q: What about the “23 kD unprocessed form of Rap1” value of the same compound?
A: proportional increase
